Results on 19 compounds are retold here after patent US10219516B2, “Molecules having pesticidal utility, and intermediates, compositions, and processes, related thereto” (priority 2015, dated 2019).

Where two headings read alike, the source gives them in different places.

Holding throughout (assay type): in vivo
The subject of test [1] is Beet Armyworm (Spodoptera exigua, LAPHEG). Description: Bioassay on Beet Armyworm (BAW), 128-well diet tray assay. In short, it runs like this: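 Diet tray, 8 wells/compound; 50 μg/cm^2 applied to diet surface (90:10 acetone-water), dried. 1–5 L2 larvae/well; 25° C., 14:10 L:D, 5–7 d. Read-out: % mortality, mean of 8 wells.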
The subject of test [2] is Yellow Fever Mosquito (Aedes aegypti, AEDSAE). Description: Bioassay on Yellow Fever Mosquito (YFM), 96-well plate larval assay. The note with it: for YFM rating: Yellow Fever Mosquito, 96-well plate larval assay; for YFM (Biological Results, rating): Species YFM (Yellow Fever Mosquito). In short, it runs like this:
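Compound stocks at 4000 ppm in DMSO were diluted with 90:10 water/acetone, and 15 μL aliquots were dispensed into six replicate plates. About 1-day-old larvae in liver-powder water were added per well. Plates were covered and held at room temperature for 3 days before each well was scored for mortality.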

For test [3], the system named is Cabbage Looper (Trichoplusia ni, TRIPNI). Description: Bioassay on Cabbage Looper (CL), 128-well diet tray assay. The note with it: Trichoplusia ni. The method in brief:
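Test molecule is dissolved in 90:10 acetone-water and applied at 50 μg/cm^2 onto artificial diet, then dried. One to five second-instar larvae go into each of eight wells. Trays, sealed but vented, stay at 25° C., 14:10 light-dark, five to seven days, after which mortality is averaged.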

[4] abbreviates: Beet Armyworm, 128-well diet tray assay, read-out: BAW rating.
Setting [5] is: Cabbage Looper, 128-well diet tray assay, read-out: CL rating.
[6] abbreviates: Species BAW (Beet Armyworm), read-out: BAW (Biological Results, rating).
Setting [7] is: Species CL (Cabbage Looper), read-out: CL (Biological Results, rating).

`COC(=O)Nc1ccc(NC(=O)c2cc(NC(=O)[C@H]3[C@H](c4cc(Cl)cc(Cl)c4)C3(Cl)Cl)ccc2Cl)cc1` (relative stereo) [PF110, trans-methyl (4-(2-chloro-5-(2,2-dichloro-3-(3,5-dichlorophenyl)cyclopropane-1-carboxamido)benzamido)phenyl)carbamate]: the pest or weed control at 50 µg/cm2 in test [1] (setting [4]) and in test [3] (setting [5]) was 50 to 100% in each case. Moreover, the YFM rating entry in test [2] is listed as “B (More than 0-Less than 80)”.
For `O=C(Nc1ccc(F)cc1)c1cc(Cl)cc(NC(=O)[C@H]2[C@H](c3cc(Cl)cc(Cl)c3)C2(Cl)Cl)c1` (relative stereo) [F136, trans-3-Chloro-5-(2,2-dichloro-3-(3,5-dichlorophenyl)cyclopropane-1-carboxamido)-N-(4-fluorophenyl)benzamide], the pest or weed control at 50 µg/cm2 in test [1] (setting [6]) and in test [3] (setting [7]) was 50 to 100% in each case. For the same compound, in test [2], the “YFM (Biological Results, rating)” value is “A (80-100)”.
For the compound `Nc1cc(F)cc(F)c1NC(=O)c1cc(NC(=O)[C@H]2[C@H](c3ccc(F)c(Cl)c3)C2(Cl)Cl)ccc1Cl` [F409, N-(2-Amino-4,6-difluorophenyl)-2-chloro-5-((1R,3R)-2,2-dichloro-3-(3-chloro-4-fluorophenyl)cyclopropane-1-carboxamido)benzamide], the pest or weed control at 50 µg/cm2 in test [1] (setting [4]) and in test [3] (setting [5]) was 50 to 100% each time. Also, in test [2], the YFM rating result is on record as “A (80-100)”.
In the case of `O=C(Nc1ccc(F)cc1F)c1cc(NC(=O)[C@H]2[C@H](c3ccc(C(F)F)cc3)C2(Cl)Cl)ccc1Cl` (relative stereo) [F565, 2-Chloro-5-(trans-2,2-dichloro-3-(4-(difluoromethyl)phenyl)cyclopropane-1-carboxamido)-N-(2,4-difluorophenyl)benzamide], the pest or weed control at 50 µg/cm2 in test [1] (setting [4]) and in test [3] (setting [5]) was 50 to 100% in each case. Besides, the YFM rating result in test [2] is given as “A (80-100)”.
Turning to `N#Cc1cc(F)ccc1NC(=O)c1cc(NC(=O)[C@@H]2[C@@H](c3cc(Cl)cc(Cl)c3)C2(Cl)Cl)ccc1Cl` [F536, 2-Chloro-N-(2-cyano-4-fluorophenyl)-5-((1S,3S)-2,2-dichloro-3-(3,5-dichlorophenyl)cyclopropane-1-carboxamido)benzamide], the pest or weed control at 50 µg/cm2 in test [1] (setting [4]) and in test [3] (setting [5]) was 50 to 100% each time. Also, the YFM rating result in test [2] is given as “A (80-100)”.
Regarding `O=C(Nc1ncccn1)c1cc(NC(=O)[C@H]2[C@H](c3cc(Cl)cc(Cl)c3)C2(Cl)Cl)ccc1Cl` (relative stereo) [F294, trans-2-Chloro-5-(2,2-dichloro-3-(3,5-dichlorophenyl)cyclopropane-1-carboxamido)-N-(pyrimidin-2-yl)benzamide], the pest or weed control at 50 µg/cm2 in test [1] (setting [6]) and in test [3] (setting [7]) was 50 to 100% each time. For the same compound, the “YFM (Biological Results, rating)” value in test [2] is given as “A (80-100)”.
In the case of `CN(C(=O)c1cc(NC(=O)[C@H]2[C@H](c3ccc(C(F)F)c(Cl)c3)C2(Cl)Cl)ccc1Cl)c1ccc(F)cc1` (relative stereo) [F596, 2-Chloro-5-(trans-2,2-dichloro-3-(3-chloro-4-(difluoromethyl)phenyl)cyclopropane-1-carboxamido)-N-(4-fluorophenyl)-N-methylbenzamide], the pest or weed control at 50 µg/cm2 in test [1] (setting [4]) and in test [3] (setting [5]) was 50 to 100% throughout. For the same compound, the YFM rating entry in test [2] is “A (80-100)”.
In the case of `Nc1c(F)cc(F)cc1NC(=O)c1cc(NC(=O)[C@H]2[C@H](c3cc(Cl)c(Cl)c(Cl)c3)C2(Cl)Cl)ccc1Cl` [F404, N-(2-Amino-3,5-difluorophenyl)-2-chloro-5-((1R,3R)-2,2-dichloro-3-(3,4,5-trichlorophenyl)cyclopropane-1-carboxamido)benzamide], the pest or weed control at 50 µg/cm2 in test [1] (setting [4]) and in test [3] (setting [5]) was 50 to 100% each time. In addition, the YFM rating result in test [2] is listed as “A (80-100)”.
With `O=C(Nc1ccc(F)cc1)c1cc(NC(=O)C2C(c3cc(Cl)cc(Cl)c3)[C@@H]2Cl)ccc1Cl` (stereo partly drawn) [F212, 2-Chloro-5-((2S)-2-chloro-3-(3,5-dichlorophenyl)cyclopropane-1-carboxamido)-N-(4-fluorophenyl)benzamide], the pest or weed control at 50 µg/cm2 in test [1] (setting [6]) and in test [3] (setting [7]) was 50 to 100% in each case. The “YFM (Biological Results, rating)” value in test [2] was “A (80-100)”.
For the compound `Cc1ccc(NC(=O)c2cc(NC(=O)C3C(c4cc(Cl)cc(Cl)c4)C3(Cl)Cl)ccc2Cl)cc1Cl` (stereo not drawn) [PF125, 2-Chloro-N-(3-chloro-4-methylphenyl)-5-(trans)-2,2-dichloro-3-(3,5-dichlorophenyl)cyclopropane-1-carboxamido)benzamide], the pest or weed control at 50 µg/cm2 in test [1] (setting [4]) and in test [3] (setting [5]) was 50 to 100% in each case. In addition, the YFM rating entry in test [2] is listed as “A (80-100)”.
With `CC(C)(C)OC(=O)Nc1ccc(NC(=O)c2cc(NC(=O)[C@H]3[C@H](c4cc(Cl)cc(Cl)c4)C3(Cl)Cl)ccc2Cl)cc1` (relative stereo) [PF13, trans-tert-Butyl-(4-(2-chloro-5-(2,2-dichloro-3-(3,5-dichlorophenyl)cyclopropane-1-carboxamido)benzamido)phenyl)carbamate], the pest or weed control at 50 µg/cm2 in test [1] (setting [4]) and in test [3] (setting [5]) was 50 to 100% throughout. The YFM rating entry in test [2] is “A (80-100)”.
For the compound `Cc1cc(N)ccc1NC(=O)c1cc(NC(=O)[C@H]2[C@H](c3cc(Cl)cc(Br)c3)C2(Cl)Cl)ccc1Cl` (relative stereo) [F337, N-(4-Amino-2-methylphenyl)-5-(trans-3-(3-bromo-5-chlorophenyl)-2,2-dichlorocyclopropane-1-carboxamido)-2-chlorobenzamide], the pest or weed control at 50 µg/cm2 in test [1] (setting [6]) and in test [3] (setting [7]) was 50 to 100% throughout. Moreover, the “YFM (Biological Results, rating)” value in test [2] was “A (80-100)”.
Take `CNc1cc(NC(=O)c2cc(NC(=O)[C@H]3[C@H](c4cc(Cl)cc(Cl)c4)C3(Cl)Cl)ccc2Cl)ccc1F` (relative stereo) [F239, trans-2-Chloro-5-(2,2-dichloro-3-(3,5-dichlorophenyl)cyclopropane-1-carboxamido)-N-(4-fluoro-3-(methylamino)phenyl)benzamide]: the pest or weed control at 50 µg/cm2 in test [1] (setting [6]) and in test [3] (setting [7]) was 50 to 100% throughout. Further, the “YFM (Biological Results, rating)” value in test [2] was “A (80-100)”.
`CC(=O)Nc1ccc(NC(=O)c2cc(NC(=O)[C@H]3[C@H](c4cc(Cl)cc(Cl)c4)C3(Cl)Cl)cc(Cl)c2Cl)cc1` (relative stereo) [F248, trans-N-(4-Acetamidophenyl)-2,3-dichloro-5-(2,2-dichloro-3-(3,5-dichlorophenyl)cyclopropane-1-carboxamido)benzamide]: the pest or weed control at 50 µg/cm2 in test [1] (setting [6]) and in test [3] (setting [7]) was 50 to 100% in each case. Also, the “YFM (Biological Results, rating)” value in test [2] was “A (80-100)”.
As for `O=C(Nc1c(F)cccc1F)c1cc(NC(=O)[C@H]2[C@H](c3ccc(F)c(Cl)c3)C2(Cl)Cl)ccc1Cl` (relative stereo) [F161, trans-2-Chloro-5-(2,2-dichloro-3-(3-chloro-4-fluorophenyl)cyclopropane-1-carboxamido)-N-(2,6-difluorophenyl)benzamide], the pest or weed control at 50 µg/cm2 in test [1] (setting [6]) and in test [3] (setting [7]) was 50 to 100% in each case. The “YFM (Biological Results, rating)” value in test [2] is recorded as “A (80-100)”.
With `Cc1cc(N)ccc1NC(=O)c1cc(NC(=O)[C@@H]2[C@@H](c3cc(Cl)cc(Cl)c3)C2(Cl)Cl)ccc1Cl` [F284, N-(4-Amino-2-methylphenyl)-2-chloro-5-((1S,3S)-2,2-dichloro-3-(3,5-dichlorophenyl)cyclopropane-1-carboxamido)benzamide], the pest or weed control at 50 µg/cm2 in test [1] (setting [6]) and in test [3] (setting [7]) was 50 to 100% in each case. Moreover, in test [2], the “YFM (Biological Results, rating)” value is on record as “A (80-100)”.
Take `C=Cc1ccc([C@H]2[C@H](C(=O)Nc3ccc(Cl)c(C(=O)Nc4ccc(F)cc4F)c3)C2(Cl)Cl)cc1C(F)(F)F` (relative stereo) [F391, 2-Chloro-5-(trans-2,2-dichloro-3-(3-(trifluoromethyl)-4-vinylphenyl)cyclopropane-1-carboxamido)-N-(2,4-difluorophenyl)benzamide]: the pest or weed control at 50 µg/cm2 in test [1] (setting [4]) and in test [3] (setting [5]) was 50 to 100% in each case. Besides, the YFM rating entry in test [2] is “A (80-100)”.
Regarding `O=C(Nc1ccc(F)cc1F)c1cc(NC(=O)[C@H]2[C@H](c3cc(Cl)cc(Cl)c3)C2(Cl)Cl)ccc1F` (relative stereo) [F61, trans-5-(2,2-Dichloro-3-(3,5-dichlorophenyl)cyclopropane-1-carboxamido)-N-(2,4-difluorophenyl)-2-fluorobenzamide], the pest or weed control at 50 µg/cm2 in test [1] (setting [6]) and in test [3] (setting [7]) was 50 to 100% each time. In test [2], the “YFM (Biological Results, rating)” value is “B (More than 0-Less than 80)”.
For `CC1(c2cc(Cl)cc(Cl)c2)C(C(=O)Nc2ccc(Cl)c(C(=O)Nc3ccc(F)cc3F)c2)C1(Cl)Cl` (stereo not drawn) [F252, 2-Chloro-5-trans-(2,2-dichloro-3-(3,5-dichlorophenyl)-3-methylcyclopropane-1-carboxamido)-N-(2,4-difluorophenyl)benzamide], the pest or weed control at 50 µg/cm2 in test [1] (setting [6]) and in test [3] (setting [7]) was 50 to 100% in each case. In test [2], the “YFM (Biological Results, rating)” value is given as “A (80-100)”.
